In patent US20220363662A1, “COMPOUNDS AS LXR AGONISTS” (Integral Biosciences Privated Limited, priority 2021, published 2022) one finds IC50 and EC50 data, which are given here for 15 compounds.

Molecules are shown by their SMILES. Bounds are passed on as bounds.

The subject of one assay is MDA-MB-231. In words: Cell viability assay (resazurin) in MDA-MB-231. The format is cell-based. As to conditions: Homo sapiens, 96 hr exposure, read-out: MDA_MB-231 Cell IC50. Here is the method:
(§1) HepG2 (ATCC® HB-8065™), hepatocellular carcinoma, A549 (ATCC® CCL-185™), lung epithelial carcinoma, MCF7 (ATCC® HTB-22™), mammary gland epithelial carcinoma, MDA-MB-231 (ATCC® HTB-26™), TNBC, MiaPaCa-2 (ATCC® CRL-1420™) & Panc-1 (ATCC® CRL-1469™), pancreatic epithelial carcinoma, HCT116 (ATCC® CCL-247™), colon epithelial carcinoma and U87MG (ATCC® HTB-14™), brain epithelial carcinoma cell lines respectively were seeded in the respective medium (DMEM, Cat #10569044 with 10% FBS, Cat #16000044; Gibco for HepG2, A549, MCF7, MDA-MB-231, MiaPaCa-2, Panc-1, HCT116 and MEM, Cat #11095080 with 10% FBS for U87MG). Cells were allowed to grow at 37° C. for 24 hr in 5% CO2 (culture conditions) in a Nuaire incubator (humidified). Serially diluted compounds (100 μl) were added to the culture plate 24 hr later and the cultures were further incubated in culture conditions for 96 hr. Experiment was terminated at the completion of 96 hr exposure to the drug by replacing the medium with 100 μl of 1 mM of resazurin (R7017; Sigma) prepared in culture medium and the plates were further incubated in culture conditions for 4 hr. Fluorescence was then measured using a multimodal plate reader (Biotek Synergy Neo) at an excitation wavelength of 535 nm and emission wavelength of 590 nm to obtain relative fluorescence units. Data analysis was done by subtracting the background fluorescence (only medium blank) value from each reading and then normalizing with the vehicle control (DMSO treated cells) to obtain percent survival/proliferation. Percent survival at different doses was used to calculate IC50 by fitting the curve to the “four-parameter variable slope logistic model” using Prism Graph Pad.
For orientation: Alamar Blue is a resazurin reagent that responds to reducing activity.

In another assay the target is T1, LXR beta (Homo sapiens, UniProt P55055).
T1 construct: 5 μL of 4×LXR beta-LBD was added to each well (final concentration 5 nM); purchased Thermofisher PV4658
T1 sequence (P55055 222-460 limits assumed): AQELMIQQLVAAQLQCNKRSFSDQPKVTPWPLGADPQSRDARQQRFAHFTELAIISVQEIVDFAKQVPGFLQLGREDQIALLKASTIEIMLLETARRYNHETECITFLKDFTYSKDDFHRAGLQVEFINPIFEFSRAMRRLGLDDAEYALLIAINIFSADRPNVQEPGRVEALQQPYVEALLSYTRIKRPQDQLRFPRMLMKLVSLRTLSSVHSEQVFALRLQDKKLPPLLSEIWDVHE
The experiment in a line: LXR beta agonist assay (Lanthascreen TR-FRET). The assay is classed as biochemical. As to conditions: LXR beta-LBD 5 nM, read-out: LXR-β EC50. The method, boiled down: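 TR-FRET coactivator recruitment: 5 nM LXR beta-LBD with 100 nM Fl-D22 peptide and 10 nM Tb-anti-GST antibody (final) in Coregulator Buffer G, 60 min at 22° C, read hourly up to 4 hours. Duplicate three-fold titrations from 30 μM; EC50 by variable-slope nonlinear regression.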
On the technique in general: In TR-FRET formats the signal depends on donor and acceptor labels being close together.

The next assay relates to THP1. The experiment in a line: Cell viability assay in THP1. The assay is classed as cell-based. As to conditions: Homo sapiens, THP-1.
A further assay concerns HCT116. The experiment in a line: Cell viability assay (resazurin) in HCT116. The assay is classed as cell-based. As to conditions: Homo sapiens, HCT-116; 96 hr exposure. Here is the method:
as §1

A further assay deals with A549. The experiment in a line: Cell viability assay (resazurin) in A549. The format is cell-based. As to conditions: Homo sapiens, 96 hr exposure. Here is the method: as §1
A further assay has as its target T2, LXR alpha (Homo sapiens, UniProt Q13133).
T2 construct: 5 μL of 4×LXR alpha-LBD was added to each well (final concentration 2.5 nM); purchased Thermofisher PV4655
T2 sequence (Q13133 209-447 limits assumed): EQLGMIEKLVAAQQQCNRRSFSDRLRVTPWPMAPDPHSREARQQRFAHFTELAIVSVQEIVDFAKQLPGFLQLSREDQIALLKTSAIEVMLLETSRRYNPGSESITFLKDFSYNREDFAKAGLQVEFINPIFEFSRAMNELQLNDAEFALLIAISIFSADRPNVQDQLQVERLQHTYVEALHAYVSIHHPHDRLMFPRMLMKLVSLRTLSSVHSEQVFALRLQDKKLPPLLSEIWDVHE
The experiment in a line: LXR alpha agonist assay (Lanthascreen TR-FRET). The assay is classed as biochemical. As to conditions: LXR alpha-LBD 2.5 nM, read-out: LXR-α EC50. Here is the method: EC50 values of compounds against LXR alpha were determined at Integral BioSciences (India) using Lanthascreen TR-FRET (Thermofisher, Cat #PV4655). Assay was performed in a 20 μL final volume in a Black 384-well plate (Corning, Cat #4511). Dose response curve for the compounds were prepared in duplicates with starting concentration at 30 μM and a three-fold titration was performed. The reaction buffer consisted of TR-FRET Coregulator Buffer H. To the compound dilution, 5 μL of 4×LXR alpha-LBD was added to each well (final concentration 2.5 nM). An equal volume (5 μL) containing 4×Fl-D22/Tb-anti GST antibody (final concentration 250 nM/10 nM) was added to initiate the enzyme reaction and the reaction was incubated for 60 min at 22° C. after which the plates were read using BioTek Plate reader for TR-FRET every hour up to 4 hours.
Analysis was done using the standard curve by non-linear regression, variable slope inhibitor curve fits (Graph-Pad Prism) and EC50's of compounds were determined wherever possible.

For the next assay, the system named is HepG2. In words: Cell viability assay (resazurin) in HepG2. The assay is classed as cell-based. As to conditions: Homo sapiens, 96 hr exposure. Here is the method:
as §1

In general, IC50 refers to the concentration that gives 50% inhibition. The term EC50 denotes the concentration giving half of the maximal effect.

As to `CC(C)C(O)(C(=O)N1CCC(N2CC(Nc3ccc(C(=O)N(C)C)c(Cl)c3)C2)CC1)C(F)(F)F` (stereo not drawn) [Compound 1.43, 2-chloro-4-(1-(1-(2-hydroxy-3-methyl-2-(trifluoromethyl)butanoyl)piperidin-4-yl)azetidin-3-ylamino)-N,N-dimethylbenzamide], the IC50 in the assay on MDA-MB-231, in the assay with THP1, in the assay with HCT116 and in the assay on A549 was over 30 µM throughout. For the same compound, on LXR beta, the EC50 came to 4680 nM.
Consider `CC1CC(N2CC(Nc3ccc(C(=O)N(C)C)c(Cl)c3)C2)CCN1S(=O)(=O)c1ccccc1Cl` (stereo not drawn) [Compound 1.84, 2-chloro-4-(1-(1-(2-chlorophenylsulfonyl)-2-methylpiperidin-4-yl)azetidin-3-ylamino)-N,N-dimethylbenzamide], for which the EC50 stood at 16.1 µM at LXR alpha and 1140 nM on LXR beta.
The like results for `CN(C)C(=O)c1ccc(N2CCN(C3CC4(C3)CN(C(=O)[C@@](O)(c3ccccc3)C(F)(F)F)C4)CC2)cc1Cl` (single isomer, unassigned) [Compound 1.18] were, in that order, 5.96 µM and 1580 nM.
For `CN(C)C(=O)c1ccc(NC2CN(C3CCN(C(=O)C4(c5ccc(F)cc5)CCC4)CC3)C2)cc1Cl` [Compound 1.49, 2-chloro-4-(1-(1-(1-(4-fluorophenyl)cyclobutanecarbonyl)piperidin-4-yl)azetidin-3-ylamino)-N,N-dimethylbenzamide], the IC50 was 15 µM in the assay on MDA-MB-231, over 30 µM in the assay on THP1, 17.8 µM in the assay with HCT116 and 15.1 µM with A549. Also, the EC50 on LXR beta was 15900 nM.
The like results for `CC(C)C(O)(C(=O)N1CCC(N2CC[C@H](Nc3ccc(C(=O)N(C)C)c(Cl)c3)C2)CC1)C(F)(F)F` (stereo partly drawn) [Compound 1.40, 2-chloro-4-((3S)-1-(1-(2-hydroxy-3-methyl-2-(trifluoromethyl)butanoyl)piperidin-4-yl)pyrrolidin-3-ylamino)-N,N-dimethylbenzamide] were, in that order, over 30 µM, over 30 µM, over 30 µM, over 30 µM and 23600 nM.
The like results for `CN(C)C(=O)c1ccc(NC2CCN(C3CCN(C(=O)[C@](O)(c4ccccc4)C(F)(F)F)CC3)CC2)cc1Cl` [Compound 1.47, (R)-2-chloro-N,N-dimethyl-4-(1′-(3,3,3-trifluoro-2-hydroxy-2-phenylpropanoyl)-1,4′-bipiperidin-4-ylamino)benzamide] were, in that order, over 30 µM, over 30 µM, over 30 µM, over 30 µM and 2910 nM.
With `O=C(N1CCC(N2CCN(c3cc(Cl)c4c(=O)[nH]ccc4c3)CC2)CC1)C1(c2ccccc2)CCC1` [Compound 1.29, 8-chloro-6-(4-(1-(1-phenylcyclobutanecarbonyl)piperidin-4-yl)piperazin-1-yl)isoquinolin-1(2H)-one], the EC50 on LXR alpha amounted to 8.63 µM; on LXR beta, 920 nM.
In the case of `CN(C)C(=O)c1ccc(N[C@H]2CCN(C3CCN(C(=O)[C@](O)(c4ccccc4)C(F)(F)F)CC3)C2)cc1Cl` [Compound 1.46, 2-chloro-N,N-dimethyl-4-((S)-1-(1-((R)-3,3,3-trifluoro-2-hydroxy-2-phenylpropanoyl)piperidin-4-yl)pyrrolidin-3-ylamino)benzamide], the 50% inhibitory concentration (IC50) with MDA-MB-231, in the assay with THP1, with HCT116 and in the assay with A549 was over 30 µM in each case. At LXR beta, the EC50 is over 30000 nM.
In the case of `CN(C)C(=O)c1ccc(NC2CN(C3CCN(C(=O)C4(c5cccc(F)c5)CCC4)CC3)C2)cc1Cl` [Compound 1.42, 2-chloro-4-(1-(1-(1-(3-fluorophenyl)cyclobutanecarbonyl)piperidin-4-yl)azetidin-3-ylamino)-N,N-dimethylbenzamide], the IC50 is 16.1 µM with MDA-MB-231, over 30 µM in the assay on THP1, 15.1 µM with HCT116 and over 30 µM in the assay with A549. In addition, the EC50 at LXR beta was 3090 nM.
For the compound `CN(C)C(=O)c1ccc(NC2CN(C3CCN(C(=O)C4(c5ccccc5)CCC4)CC3)C2)cc1Cl` [Compound 1.48, 2-chloro-N,N-dimethyl-4-(1-(1-(1-phenylcyclobutanecarbonyl)piperidin-4-yl)azetidin-3-ylamino)benzamide], the IC50 was over 30 µM with MDA-MB-231, over 30 µM with THP1, 12.2 µM in the assay on HCT116 and 19.8 µM in the assay on A549.
With `CN(C)C(=O)c1ccc(N2CCN(C3CC4(C3)CN(S(=O)(=O)c3ccccc3C(F)(F)F)C4)CC2)cc1Cl` [Compound 1.5, 2-chloro-N,N-dimethyl-4-(4-(2-(2-(trifluoromethyl)phenylsulfonyl)-2-azaspiro[3.3]heptan-6-yl)piperazin-1-yl)benzamide], the EC50 on LXR alpha was over 30 µM; on LXR beta, 1110 nM.
Regarding `CN(C)C(=O)c1ccc(NC2CN(C3CCN(C(=O)C(C)(C)c4ccccc4)CC3)C2)cc1Cl` [Compound 1.41, 2-chloro-N,N-dimethyl-4-(1-(1-(2-methyl-2-phenylpropanoyl)piperidin-4-yl)azetidin-3-ylamino)benzamide], the IC50 with MDA-MB-231, in the assay with THP1, with HCT116 and in the assay with A549 was over 30 µM in each case. For the same compound, the EC50 on LXR beta came to 5750 nM.
Regarding `CN(C)C(=O)c1ccc(OC2CN(C3CCN(C(=O)[C@](O)(c4ccccc4)C(F)(F)F)CC3)C2)cc1Cl` [Compound 1.77, (R)-2-chloro-N,N-dimethyl-4-(1-(1-(3,3,3-trifluoro-2-hydroxy-2-phenylpropanoyl)piperidin-4-yl)azetidin-3-yloxy)benzamide], the EC50 at LXR alpha is 19.5 µM; on LXR beta it was 1530 nM. In addition, in the assay on HepG2, the IC50 was over 30 µM.
In the case of `CC(C)[C@](O)(C(=O)N1CCC2(CC1)CN(C1CCN(c3ccc(C(=O)N(C)C)c(Cl)c3)CC1)C2)C(F)(F)F` (single isomer, unassigned) [Compound 1.74], the figures for the EC50 on LXR alpha and on LXR beta were 1.25 µM and 750 nM, respectively. The IC50 in the assay with HepG2 was over 30 µM.
Turning to `CN(C)C(=O)c1ccc(-c2cncc(C3=CCN(S(=O)(=O)c4ccccc4Cl)CC3)c2)cc1Cl` [Compound 1.39, 2-chloro-4-(5-(1-(2-chlorophenylsulfonyl)-1,2,3,6-tetrahydropyridin-4-yl)pyridin-3-yl)-N,N-dimethylbenzamide], the IC50 in the assay with MDA-MB-231, in the assay with THP1, with HCT116 and in the assay on A549 was over 30 µM each time.
